Reference: patent US7989632B2, “Crystalline forms of solvated ilaprazole” (Il Yang Pharmaceutical Company, Ltd., priority 2006, dated 2011)

What was measured:
[1] = system: gastric acid; test: Phase 1 clinical studies conducted with ilaprazole; assay type: in vivo, humans; conditions: Phase 1, at the doses studied
[2] = system: gastric-acid related disorders; acid-related gastric and duodenal ulcers; test: Phase 2 clinical studies conducted with ilaprazole; assay type: in vivo, humans; conditions: at the doses studied
[3] = Dynamic Vapor Sorption/Desorption (DVS) isotherm; assay type: physicochemical; conditions: for DVS weight loss at 5% RH: samples not dried prior to analysis; for DVS weight loss from 95 to 5% RH: desorption
Experimental: Dynamic Vapor Sorption/Desorption (DVS): Data were collected on a VTI SGA-100 moisture balance system. For sorption isotherms, a sorption range of 5 to 95% relative humidity (RH) and a desorption range of 95 to 5% RH in 10% RH increments were used for analysis. The samples were not dried prior to analysis. Equilibrium criteria used for analysis were less than 0.0100% weight change in 5 minutes with a maximum equilibration time of 3 hours if the weight criterion was not met. Data were not corrected for the initial moisture content of the samples.

| SMILES | suppression of gastric acid [1] | healing of ulcers ([2]; Phase 2, acid-related gastric and duodenal ulcers) | symptomatic relief ([2]; Phase 2, patients with gastric-acid related disorders) | DVS weight loss at 5% RH [3] [%] | DVS weight loss from 95 to 5% RH [3] [%] | DVS weight gain from 5 to 95% RH ([3]; sorption, 5 to 95% RH) [%] | DVS weight loss from 5 to 95% RH ([3]; sorption, 5 to 95% RH) [%] |
| --- | --- | --- | --- | --- | --- | --- | --- |
| COc1ccnc(C[S+]([O-])c2nc3cc(-n4cccc4)ccc3[nH]2)c1C (stereo not drawn) [ilaprazole, 2[[(4-methoxy-3-methyl-2-pyridinyl)-methyl]sulfinyl]-5-(1H-pyrrol-1-yl) 1H-Benzimidazole] | suppression of gastric acid occurs over a 24-hour period | promoted rapid healing | provided symptomatic relief | – | – | – | – |
| C1CCOC1.COc1ccnc(C[S+]([O-])c2nc3cc(-n4cccc4)ccc3[nH]2)c1C.COc1ccnc(C[S+]([O-])c2nc3cc(-n4cccc4)ccc3[nH]2)c1C (racemic) [Form D, crystalline THF/racemic ilaprazole hemisolvate] | – | – | – | ~0.6 | ~1.2 | ~0.6 | – |
| C1COCCO1.COc1ccnc(C[S+]([O-])c2nc3cc(-n4cccc4)ccc3[nH]2)c1C.COc1ccnc(C[S+]([O-])c2nc3cc(-n4cccc4)ccc3[nH]2)c1C (racemic) [Form C, crystalline 1,4-dioxane/racemic ilaprazole hemi-solvate] | – | – | – | ~1.2 | ~4.1 | – | ~1.1 |
